One test has as its system C. acnes strain K8. Nature of the test: Minimum inhibitory concentration (MIC) / compatibility of cosmetic excipients. The class given is cell-based, Cutibacterium acnes. Conditions: % w/vol, incubated anaerobically 3 days at 37° C, growth scored visually. The method, then:
(§1) In microbiology, the MIC is the lowest concentration of a chemical which prevents visible growth of bacterium. The resulted MIC value depends both on the microorganism and the test compound. The MIC is determined by preparing concentrations series of the test compound in vitro, incubating the solutions with the separate batches of cultured bacteria, and measuring the results using agar dilution or broth microdilution. For the experiments with C. acnes strains C3 and K8, media comprising yeast extract soy peptone and dextrose were used. The MIC is determined by turbidity.
(§2) A total of 125 cosmetic excipients were tested for their compatibility with C. acnes strains C3 and K8. Hydrophilic compounds were tested in a 96-well plate liquid broth format, poorly soluble compounds were pre-dissolved in DMSO before dilution in liquid broth and hydrophobic or solid compounds were tested in an agar well diffusion test assay. The different dilutions of the test excipients in media were prepared in Falcon tubes and then distributed in a deep well plate using a multistepper. Each well received 1.2 ml and was subsequently inoculated with 120 μl of C. acnes bacteria suspension (strain C3 and K8). From the deep well plate 200 μl were transferred in each well of a clear 96 well replicate plate. The leftover was discarded. The plates were then incubated anaerobically for 3 days at 37° C. Following incubation, the test plates were visually examined and wells were scored for growth or complete growth inhibition to define the minimum inhibitory concentration.
(§3) These excipients are listed in the below table with their compatibility values for C. acnes strains C3 and K8. The compatibility values represent the MIC value of the listed ingredients with the tested C. acnes strains. At this concentration [% w/vol] the tested compound starts interfering with the growth of the tested strains. The compounds can be used in formulations at concentrations below this concentration.

The test system of the next test is C. acnes strain C3. The test is described as above. The following applies: % w/vol, incubated anaerobically 3 days at 37° C, growth scored visually. The class given is cell-based, Cutibacterium acnes. On the procedure: as §1, §2, §3

Regarding `CCCCCCC(O)CO` (centres unmarked) [caprylyl glycol], the “COMPATABILITY VALUE K8 [%] (MIC value)” value with C. acnes strain K8 came to 0.18%. Further, the “COMPATABILITY VALUE C3 [%] (MIC value)” value in the test with C. acnes strain C3 was 0.18%.
Take `O=C(O)CC(O)(CC(=O)O)C(=O)O` [citric acid]: in the test with C. acnes strain K8, the “COMPATABILITY VALUE K8 [%] (MIC value)” value was found to be 0.08%. Moreover, the “COMPATABILITY VALUE C3 [%] (MIC value)” value with C. acnes strain C3 was found to be 0.33%.
For the molecule `CCO` [ethanol], in the test with C. acnes strain K8, the “COMPATABILITY VALUE K8 [%] (MIC value)” value is on record as 3.75%. Further, the “COMPATABILITY VALUE C3 [%] (MIC value)” value with C. acnes strain C3 worked out at 3.75%.
Turning to `CC(CO)CO` [methylpropanediol], the “COMPATABILITY VALUE K8 [%] (MIC value)” value in the test with C. acnes strain K8 was determined as 4.00%. Also, the “COMPATABILITY VALUE C3 [%] (MIC value)” value in the test on C. acnes strain C3 is 4.00%.
Turning to `CC(=O)Oc1c(C)c(C)c2c(c1C)CCC(C)(CCC[C@H](C)CCC[C@H](C)CCCC(C)C)O2` (some centres unmarked) [tocopheryl acetate], the “COMPATABILITY VALUE K8 [%] (MIC value)” value in the test on C. acnes strain K8 came to 1.00%. Moreover, the “COMPATABILITY VALUE C3 [%] (MIC value)” value in the test on C. acnes strain C3 turned out to be 1.00%.
As for ethylhexyl cocoate, the “COMPATABILITY VALUE K8 [%] (MIC value)” value in the test with C. acnes strain K8 is reported as 10.00%. Also, the “COMPATABILITY VALUE C3 [%] (MIC value)” value in the test with C. acnes strain C3 came out at 10.00%.
For the molecule tocopherol, the “COMPATABILITY VALUE K8 [%] (MIC value)” value with C. acnes strain K8 was 1.50%. Besides, the “COMPATABILITY VALUE C3 [%] (MIC value)” value in the test on C. acnes strain C3 was 1.50%.

Values taken from patent US12409129B2, “Skin care composition” (BEIERSDORF AG, priority 2019, dated 2025).
